Where a name gives a salt, the structure may show the parent alone. Bounds are passed on as bounds.

These results are taken from patent publication US12594264B2, “Modulators of alpha-synuclein proteolysis and associated methods of use” (Arvinas Operations, Inc., priority 2018, dated 2026).

The test concerns the target T1, sarkosyl insoluble (SI) α-synuclein (human α-SYN A53T) (Homo sapiens, UniProt P37840, A53T).
T1 construct: expressed in transfected cells
The experiment in a line: MJFF-14-6-4-2 conformation specific ELISA of sarkosyl insoluble α-synuclein after compound treatment. The note with it: 1 μM compound; protein remaining relative to DMSO control; PFF induced A53T α-synuclein overexpressing HEK293 cells; read-out: Protein Degradation at 1 μM. The format is cell-based. As for the experimental part: Targeted degradation of sarkosyl insoluble (SI) α-synuclein via exemplary bifunctional compounds was assessed by MJFF-14-6-4-2 conformation specific ELISA following treatment of PFF induced A53T α-synuclein overexpressing HEK293 cells with 1 μM exemplary compound compared to DMSO vehicle control. Degradation activity of the exemplary compounds of Table 2 is expressed as % DMSO control. […] However, the effect of bifunctional targeting degraders, shown in FIG. 5, required the intact E3 ligase binding domain.
Trex293 (doxycycline inducible) cells stably expressing human α-SYN A53T (monoclonal) were plated in poly-d-lysine coated T-75 tissue culture flasks (4.5×10e6 cells/flask) in DMEM with 10% tet-free FBS, 10 μg/ml blasticidin, and 400 μg/ml zeocin. After an overnight incubation, the cells were induced to express α-SYN by treatment with 1 μg/ml doxycycline (Dox) and exemplary bifunctional compound. After a 24 hour dox induction, the medium on the cells was changed to Opti-MEM followed by treatment with α-SYN pre-formed fibrils** (PFFs)(5 μg/flask) pre-complexed with Lipofectamine 2000 transfection reagent for 4 hours. After PFF treatment, the medium was changed back to DMEM with the supplements described above and exemplary bifunctional compound for 48 hours.
Cell pellets were harvested from each flask using 0.25% trypsin followed by spinning at 500×g for 5 minutes. Each pellet was resuspended in 1 ml cold buffer H [Buffer H-10 mM Tris, 1 mM EGTA, 0.8M NaCl, 10% sucrose, pH7.4 containing 1× protease and phosphatase inhibitors] containing protease and phosphatase inhibitors. The resuspended pellets were incubated on ice for 20 minutes followed by centrifugation at 27,200×g for 20 minutes at 4° C. The supernatants were adjusted to 1% sarkosyl (Sigma) and 1% 2-mercaptoethanol followed by incubation for 1 hour at 37° C. on an orbital shaker set to 400 rpm. The samples were then spun at 150,000×g for 35 minutes at room temperature. The supernatant was removed and saved as the soluble fraction and the insoluble pellet was resuspended in 25 μl tris-buffered saline (TBS). Protein concentrations were determined by NanoDrop, and normalized protein concentrations were analyzed by WES capillary electrophoresis as well as an α-SYN oligomer ELISA.
Recombinant human α-SYN was purchased from Proteos. 1 mg aliquots were supplied at 10 mg/ml in 10 mM Tris, 50 mM NaCl, pH7.6. The aliquot was thawed on ice followed by centrifugation at 4° C. for 10 minutes at 12,000×g to pellet any insoluble material. The supernatant was removed and quantitated on a NanoDrop (A280) using Beer's Law (ε=5960 M-1 cm-1). The concentration was adjusted to 5 mg/ml in PBS followed by vortexing for 3 seconds to mix contents. The mixture was incubated in an orbital shaker set to 37° C. at 1,000 rpm for 7 days followed by aliquoting into individual use vials. Prior to addition to cells, an aliquot was thawed at room temperature, then diluted to 1 mg/ml with phosphate-buffered saline (PBS) followed by sonication for 1 minute with a probe sonicator (output 1; 90% duty cycle) in a chem hood.
Coming Costar high bind black well plates were coated with MJFR 14-6-4-2 (Abcam) at 1 μg/ml for 1 hour at 37° C. followed by washing with 1×TBS+0.1% tween-20 (TBS-T) then blocking with 3% bovine serum albumin (BSA) in TBS. After re-washing, samples were added after dilution in diluent (1% BSA/TBS-T). Non-sonicated PFF was used to generate a standard curve. The plates were incubated with sample overnight at 4° C. with shaking. The following day alkaline phosphatase (AP) conjugated MJFR 14-6-4-2 was added to the plate without washing followed by incubation at room temperature for 1 hour with shaking or rocking. The plates were then re-washed and substrate (CDP star alkaline phosphatase detection reagent) was added followed by a 30 minute incubation at room temperature. The plate was read on a luminescence plate reader. The counts were log transformed and read off the standard curve. […]

With `CN(C)c1ccc2c(c1)Sc1cc(OCCOCCOCCOCCOCCOc3ccc4c(c3)C(=O)N(C3CCC(=O)NC3=O)C4=O)ccc1N2` (stereo not drawn) [Exemplary Compound 21, 5-((14-((7-(dimethylamino)-10H-phenothiazin-3-yl)oxy)-3,6,9,12-tetraoxatetradecyl)oxy)-2-(2,6-dioxopiperidin-3-yl)isoindoline-1,3-dione], the remaining activity at 1 µM fell in the range of 35 to 70%.

Take `COc1cc(/C=C/c2ccc3cc(OCCOCCOCCOCCOc4ccc5c(c4)C(=O)N(C4CCC(=O)NC4=O)C5=O)ccc3n2)ccn1` (stereo not drawn) [Exemplary Compound 36, 2-(2,6-dioxo-3-piperidyl)-5-[2-[2-[2-[2-[[2-[(E)-2-(2-methoxy-4-pyridyl)vinyl]-6-quinolyl]oxy]ethoxy]ethoxy]ethoxy]ethoxy]isoindoline-1,3-dione]: the remaining activity at 1 µM is above 120%.

As for `O=C1CCC(N2C(=O)c3ccc(N4CCN(CCCO[C@H]5C[C@H](Oc6ccc7c(c6)Sc6cc([N+](=O)[O-])ccc6N7)C5)CC4)cc3C2=O)C(=O)N1` (stereo partly drawn) [Exemplary Compound 30, 2-(2,6-dioxo-3-piperidyl)-5-[4-[3-[3-[(7-nitro-10H-phenothiazin-3-yl)oxy]cyclobutoxy]propyl]piperazin-1-yl]isoindoline-1,3-dione formate], the remaining activity at 1 µM lay in the range of 35 to 70%.

For the compound `Cc1ncsc1-c1ccc([C@H](C)NC(=O)[C@@H]2C[C@@H](O)CN2C(=O)[C@@H](NC(=O)COCCOCCOCCOCCOCCOc2ccc3c(c2)Sc2cc([N+](=O)[O-])ccc2N3)C(C)(C)C)cc1` [Exemplary Compound 11, (2S,4R)-1-((S)-2-(tert-butyl)-20-((7-nitro-10H-phenothiazin-3-yl)oxy)-4-oxo-6,9,12,15,18-pentaoxa-3-azaicosanoyl)-4-hydroxy-N-((S)-1-(4-(4-methylthiazol-5-yl)phenyl)ethyl)pyrrolidine-2-carboxamide], the remaining activity at 1 µM is above 120%.

With `CN(CCCN1c2ccccc2Sc2ccccc21)CCOCCOCCOCCOc1ccc2c(c1)C(=O)N(C1CCC(=O)NC1=O)C2=O` (stereo not drawn) [Exemplary Compound 16, 2-(2,6-dioxo-3-piperidyl)-5-[2-[2-[2-[2-[methyl(3-phenothiazin-10-ylpropyl)amino]ethoxy]ethoxy]ethoxy]ethoxy]isoindoline-1,3-dione], the remaining activity at 1 µM fell in the range of 70 to 120%.

For `CNc1ccc(-c2nc3ccc(OCCOCCOCCOCCOCC(=O)N[C@H](C(=O)N4C[C@H](O)C[C@H]4C(=O)N[C@@H](C)c4ccc(-c5scnc5C)cc4)C(C)(C)C)cc3s2)cc1` [Exemplary Compound 3, (2S,4R)-1-((S)-2-(tert-butyl)-17-((2-(4-(methylamino)phenyl)benzo[d]thiazol-6-yl)oxy)-4-oxo-6,9,12,15-tetraoxa-3-azaheptadecanoyl)-4-hydroxy-N-((S)-1-(4-(4-methylthiazol-5-yl)phenyl)ethyl)pyrrolidine-2-carboxamide], the remaining activity at 1 µM lay within 35 to 70%.

For `COc1cc(/C=C/c2ccc3cc(OCCOCCOCCOCC(=O)N[C@H](C(=O)N4C[C@H](O)C[C@H]4C(=O)N[C@@H](C)c4ccc(-c5scnc5C)cc4)C(C)(C)C)ccc3n2)ccn1` [Exemplary Compound 35, (2S,4R)-1-((S)-2-(tert-butyl)-14-((2-((E)-2-(2-methoxypyridin-4-yl)vinyl)quinolin-6-yl)oxy)-4-oxo-6,9,12-trioxa-3-azatetradecanoyl)-4-hydroxy-N—((S)-1-(4-(4-methylthiazol-5-yl)phenyl)ethyl)pyrrolidine-2-carboxamide], the remaining activity at 1 µM lay within 35 to 70%.

`O=C1CCC(N2C(=O)c3ccc(OCCOCCOCCOCCOCCOc4ccc5c(c4)Sc4cc([N+](=O)[O-])ccc4N5)cc3C2=O)C(=O)N1` (stereo not drawn) [Exemplary Compound 14, 2-(2,6-dioxopiperidin-3-yl)-5-((14-((7-nitro-10H-phenothiazin-3-yl)oxy)-3,6,9,12-tetraoxatetradecyl)oxy) isoindoline-1,3-dione]: the remaining activity at 1 µM lay within 35 to 70%.

Consider `CN(C)c1ccc(-c2nc3ccc(O[C@H]4C[C@H](OCCCN5CCN(c6ccc7c(c6)C(=O)N(C6CCC(=O)NC6=O)C7=O)CC5)C4)cc3s2)cc1` (stereo partly drawn) [Exemplary Compound 24, 2-(2,6-dioxopiperidin-3-yl)-5-(4-[3-[(1r,3r)-3-([2-[4-(dimethylamino)phenyl]-1,3-benzothiazol-6-yl]oxy)cyclobutoxy]propyl]piperazin-1-yl)-2,3-dihydro-1H-isoindole-1,3-dione], for which the remaining activity at 1 µM was above 120%.

Consider `O=C1CCC(N2C(=O)c3ccc(OCCCCCN4CCC(O[C@H]5C[C@H](Oc6ccc(CN7C(=O)C(=CC=Cc8ccc([N+](=O)[O-])cc8)c8ccccc87)cc6)C5)CC4)cc3C2=O)C(=O)N1` (stereo partly drawn) [Exemplary Compound 31, 2-(2,6-dioxopiperidin-3-yl)-5-((5-(4-((1r,3r)-3-(4-(((Z)-3-((E)-3-(4-nitrophenyl)allylidene)-2-oxoindolin-1-yl)methyl)phenoxy)cyclobutoxy)piperidin-1-yl)pentyl)oxy)isoindoline-1,3-dione], for which the remaining activity at 1 µM fell in the range of 70 to 120%.

As for `COc1cc(/C=C/c2ccc3cc(OCCOCCOCCOc4ccc5c(c4)C(=O)N(C4CCC(=O)NC4=O)C5=O)ccc3n2)ccn1` (stereo not drawn) [Exemplary Compound 47, (E)-2-(2,6-dioxopiperidin-3-yl)-5-(2-(2-(2-((2-(2-(2-methoxypyridin-4-yl)vinyl)quinolin-6-yl)oxy)ethoxy)ethoxy)ethoxy)isoindoline-1,3-dione], the remaining activity at 1 µM lay in the range of 70 to 120%.

On to `O=C1CCC(N2C(=O)c3ccc(OCCCCCN4CCC(OC5CN(CCCN6c7ccccc7Sc7ccccc76)C5)CC4)cc3C2=O)C(=O)N1` (stereo not drawn) [Exemplary Compound 22, 2-(2,6-dioxo-3-piperidyl)-5-[5-[4-[1-(3-phenothiazin-10-ylpropyl)azetidin-3-yl]oxy-1-piperidyl]pentoxy]isoindoline-1,3-dione], for which the remaining activity at 1 µM fell in the range of 35 to 70%.

`O=C1CCC(N2C(=O)c3ccc(OCCCCCN4CCC(O[C@H]5C[C@H](Oc6ccc7c(c6)Sc6cc([N+](=O)[O-])ccc6N7)C5)CC4)cc3C2=O)C(=O)N1` (stereo partly drawn) [Exemplary Compound 19, 2-(2,6-dioxo-3-piperidyl)-5-[5-[4-[3-[(7-nitro-10H-phenothiazin-3-yl)oxy]cyclobutoxy]-1-piperidyl]pentoxy]isoindoline-1,3-dione]: the remaining activity at 1 µM lay within 35 to 70%.

In the case of `CN(C)c1ccc(-c2nc3ccc(O[C@H]4C[C@H](OC5CCN(CCCCCOc6ccc7c(c6)C(=O)N(C6CCC(=O)NC6=O)C7=O)CC5)C4)cc3s2)cc1` (stereo partly drawn) [Exemplary Compound 27, 2-(2,6-dioxopiperidin-3-yl)-5-[(5-[4-[(1r,3r)-3-([2-[4-(dimethylamino)phenyl]-1,3-benzothiazol-6-yl]oxy)cyclobutoxy]piperidin-1-yl]pentyl)oxy]-2,3-dihydro-1H-isoindole-1,3-dione], the remaining activity at 1 µM is above 120%.

In the case of `O=C1CCC(N2C(=O)c3ccc(N4CCN(CCN5CCC(O[C@H]6C[C@H](Oc7ccc8c(c7)Sc7cc([N+](=O)[O-])ccc7N8)C6)CC5)CC4)cc3C2=O)C(=O)N1` (stereo partly drawn) [Exemplary Compound 18, 2-(2,6-dioxo-3-piperidyl)-5-[4-[2-[4-[3-[(7-nitro-10H-phenothiazin-3-yl)oxy]cyclobutoxy]-1-piperidyl]ethyl]piperazin-1-yl]isoindoline-1,3-dione], the remaining activity at 1 µM lay within 70 to 120%.
